According to patent publication US12227495B2, “Herbicidal compounds” (SYNGENTA CROP PROTECTION AG, priority 2018, dated 2025):

Columns and labels:
Type in all cases: in vivo
Setaria faberi (SETFA) [1] = test: Post-emergence herbicide test, glasshouse, percentage damage; settings: 1000 g/ha, evaluated after 13 days
How it was run: (§1)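 Pot-grown plants were sprayed at 500 g/ha unless otherwise stated, in acetone/water (50:50) with 0.5% Tween 20. Pre-emergence spraying was 1 day after sowing and post-emergence after 8 days, in a glasshouse at 24/16° C, 14 h light, 65% humidity. Percentage damage was scored 13 days later on a 1–5 scale (5=81-100%).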

Solanum nigrum (SOLNI) [2] = test: as above; settings: 1000 g/ha, evaluated after 13 days
How it was run: as §1

[3] = system: Echinochloa crus-galli (ECHCG); test: as above; settings: 1000 g/ha, evaluated after 13 days
How it was run: as §1

[4] = system: Amaranthus retoflexus (AMARE); test: as above; settings: 1000 g/ha, evaluated after 13 days
How it was run: as §1

[5] = system: Ipomoea hederacea (IPOHE); test: as above; settings: 1000 g/ha, evaluated after 13 days
How it was run: as §1

Lolium perenne (LOLPE) [6] = test: as above; settings: 1000 g/ha, evaluated after 13 days
How it was run: as §1

Setaria faberi (SETFA) [7] = test: Pre-emergence herbicide test, glasshouse, percentage damage; settings: rate 1000 g/ha, evaluated after 13 days
How it was run: as §1

Solanum nigrum (SOLNI) [8] = test: as above; settings: rate 1000 g/ha, evaluated after 13 days
How it was run: as §1

[9] = system: Echinochloa crus-galli (ECHCG); test: as above; settings: rate 1000 g/ha, evaluated after 13 days
How it was run: as §1

[10] = system: Amaranthus retoflexus (AMARE); test: as above; settings: rate 1000 g/ha, evaluated after 13 days
How it was run: as §1

[11] = system: Ipomoea hederacea (IPOHE); test: as above; settings: rate 1000 g/ha, evaluated after 13 days
How it was run: as §1

Lolium perenne (LOLPE) [12] = test: as above; settings: rate 1000 g/ha, evaluated after 13 days
How it was run: as §1

| Structure (SMILES) | percentage damage caused to the plant, SETFA (Setaria faberi (SETFA) [1]) | percentage damage caused to the plant, SOLNI (Solanum nigrum (SOLNI) [2]) | percentage damage caused to the plant, ECHCG [3] | percentage damage caused to the plant, AMARE [4] | percentage damage caused to the plant, IPOHE [5] | percentage damage caused to the plant, LOLPE (Lolium perenne (LOLPE) [6]) | Pre-emergence Test SETFA percentage damage (five point scale) (Setaria faberi (SETFA) [7]) | Pre-emergence Test SOLNI percentage damage (five point scale) (Solanum nigrum (SOLNI) [8]) | Pre-emergence Test ECHCG percentage damage (five point scale) [9] | Pre-emergence Test AMARE percentage damage (five point scale) [10] | Pre-emergence Test IPOHE percentage damage (five point scale) [11] | Pre-emergence Test LOLPE percentage damage (five point scale) (Lolium perenne (LOLPE) [12]) |
| --- | --- | --- | --- | --- | --- | --- | --- | --- | --- | --- | --- | --- |
| COc1cccc(Oc2ncc(Cl)cc2F)c1-n1cc(C(F)(F)F)cn1 [Compound A36, 5-chloro-3-fluoro-2-[3-methoxy-2-[4-(trifluoromethyl)pyrazol-1-yl]phenoxy]pyridine] | 5 (5=81-100%) | 5 (5=81-100%) | 4 (4=61-80%) | 5 (5=81-100%) | 2 (2=21-40%) | 4 (4=61-80%) | 5 (5=81-100%) | 5 (5=81-100%) | 5 (5=81-100%) | 5 (5=81-100%) | 5 (5=81-100%) | 3 (3=41-60%) |
| O=[N+]([O-])c1ccc(Oc2cccc(Cl)c2-c2cc(C(F)F)no2)nc1 [Compound A108] | 4 (4=61-80%) | 4 (4=61-80%) | 4 (4=61-80%) | 5 (5=81-100%) | 3 (3=41-60%) | 4 (4=61-80%) | 5 (5=81-100%) | 4 (4=61-80%) | 5 (5=81-100%) | 4 (4=61-80%) | 1 (1=0-20%) | 5 (5=81-100%) |
| FC(F)c1cc(-c2c(Br)cccc2Oc2ccc(C(F)(F)F)cn2)on1 [Compound A90] | 5 (5=81-100%) | 4 (4=61-80%) | 4 (4=61-80%) | 5 (5=81-100%) | 4 (4=61-80%) | 4 (4=61-80%) | 5 (5=81-100%) | 4 (4=61-80%) | 5 (5=81-100%) | 4 (4=61-80%) | 3 (3=41-60%) | 5 (5=81-100%) |
| FC(F)c1cc(-c2c(Cl)cccc2Oc2ncc(Cl)cc2Cl)on1 [Compound A109] | 5 (5=81-100%) | 5 (5=81-100%) | 4 (4=61-80%) | 5 (5=81-100%) | 4 (4=61-80%) | 3 (3=41-60%) | 4 (4=61-80%) | 3 (3=41-60%) | 2 (2=21-40%) | 4 (4=61-80%) | 1 (1=0-20%) | 2 (2=21-40%) |
| Fc1cc(Cl)cnc1Oc1cccc(F)c1-c1ncc(C(F)F)o1 [Compound A35] | 4 (4=61-80%) | 5 (5=81-100%) | 1 (1=0-20%) | 5 (5=81-100%) | 2 (2=21-40%) | 1 (1=0-20%) | 5 (5=81-100%) | 5 (5=81-100%) | 5 (5=81-100%) | 3 (3=41-60%) | 1 (1=0-20%) | 1 (1=0-20%) |
| N#Cc1cc(F)cnc1Oc1cccc(Br)c1-c1cc(C(F)F)no1 [Compound A84] | 5 (5=81-100%) | 5 (5=81-100%) | 5 (5=81-100%) | 5 (5=81-100%) | 5 (5=81-100%) | 5 (5=81-100%) | 5 (5=81-100%) | 4 (4=61-80%) | 5 (5=81-100%) | 5 (5=81-100%) | 5 (5=81-100%) | 5 (5=81-100%) |
| Fc1cc(Cl)cnc1Oc1ccccc1-c1cc(C(F)(F)F)cs1 [Compound A97, 5-chloro-3-fluoro-2-[2-[4-(trifluoromethyl)-2-thienyl]phenoxy]pyridine] | 5 (5=81-100%) | 4 (4=61-80%) | 4 (4=61-80%) | 5 (5=81-100%) | 4 (4=61-80%) | 3 (3=41-60%) | 4 (4=61-80%) | 2 (2=21-40%) | 3 (3=41-60%) | 4 (4=61-80%) | 2 (2=21-40%) | 2 (2=21-40%) |
